Results taken from patent EP4813980A1, “EP300/CBP REGULATOR, AND PREPARATION METHOD THEREFOR AND USE THEREOF” (Miracure Biotechnology Limited, priority 2023, dated 2025).

Legend:
Experiment in all cases: Cell growth inhibition, CellTiter-Glo, 72 h
Type in all cases: cell-based
[1] = system: 22RV1 cells; conditions: Homo sapiens, 72 h culture, mean of N=2
Experimental: (§1) 22RV1, vCap, MM1S and OPM-2 cells were cultured in RPMI-1640 medium (10% fetal bovine serum and 100 units of penicillin/streptomycin dual-antibody per mL were added to RPMI-1640) in a cell incubator at 37°C with 5% CO2, respectively. Cells in logarithmic growth phase were seeded into 96-well cell culture plates at 5×10^3 cells/100 µL/well and cultured overnight. Active compounds dissolved in DMSO at different concentrations were added with a final concentration of 0.5% DMSO. 1% Tween 20 was used as positive control and 0.5% DMSO was used as negative control. After 72 h of culture, an equal volume of CellTiter-Glo was added to each well, mixed by shaking for 2 min, and left standing at room temperature for 10 min. […] signal values were read with a microplate reader. Data were analyzed and graphs were generated using Prism 7.0. The values shown are mean ± SEM (N=2). […] The formula for inhibition rate is as follows: % Inhibition = (Icompound−IZPE)/(IHPE−IZPE) × 100 [formula]
(§2) The X-axis is compound concentration (nM), and the Y-axis is % Inhibition.

[2] = system: MM1S cells; conditions: Homo sapiens, MM1.S, 72 h culture, mean of N=2
Experimental: as §1, §2

[3] = system: OPM-2 cells; conditions: Homo sapiens, 72 h culture, mean of N=2
Experimental: as §1, §2

[4] = system: vCap cells; conditions: Homo sapiens, 72 h culture, mean of N=2
Experimental: as §1, §2

Compound | IC50 [1] [nM] | IC50 [2] [nM] | IC50 [4] [nM] | IC50 [3] [nM]
CC(=O)N1Cc2cc([C@H]3CC[C@@H](CN4Cc5cc6c(cc5C4)C(=O)N(C4CCC(=O)NC4=O)C6=O)CC3)cc(N3CCCc4cc(-c5cnn(C)c5)c(C(F)F)cc43)c2C1 (relative stereo) [Compound 2082, 6-(((1s,4s)-4-(2-acetyl-7-(7-(difluoromethyl)-6-(1-methyl-1H-pyrazol-4-yl)-3,4-dihydroquinolin-1(2H)-yl)isoindolin-5-yl)cyclohexyl)methyl)-2-(2,6-dioxopiperidin-3-yl)-6,7-dihydropyrrolo[3,4-f]isoindole-1,3(2H,5H)-dione] | 47 | 25 | 13 | 4
CC(=O)N1Cc2cc([C@H]3CC[C@H](CN4Cc5cc6c(cc5C4)C(=O)N(C4CCC(=O)NC4=O)C6=O)CC3)cc(N3CCCc4cc(-c5cnn(C)c5)c(C(F)F)cc43)c2C1 (relative stereo) [Compound 2083, 6-(((1r,4r)-4-(2-acetyl-7-(7-(difluoromethyl)-6-(1-methyl-1H-pyrazol-4-yl)-3,4-dihydroquinolin-1(2H)-yl)isoindolin-5-yl)cyclohexyl)methyl)-2-(2,6-dioxopiperidin-3-yl)-6,7-dihydropyrrolo[3,4-f]isoindole-1,3(2H,5H)-dione] | > 10000 | 35 | 58 | 13
CC(=O)N1Cc2cc([C@H]3CC[C@@H](NC(=O)CCl)CC3)cc(N3CCCc4cc(-c5cnn(C)c5)c(C(F)F)cc43)c2C1 [Compound 1361] | 106 | 2 | – | 1
C=CS(=O)(=O)N[C@H]1CC[C@@H](c2cc3c(c(N4CCCc5cc(-c6cnn(C)c6)c(C(F)F)cc54)c2)CN(C(=O)NC)CC3)CC1 [Compound 1366, 8-(7-(difluoromethyl)-6-(1-methyl-1H-pyrazol-4-yl)-3,4-dihydroquinolin-1(2H)-yl)-N-methyl-6-((1s,4s)-4-(vinylsulfonamido)cyclohexyl)-3,4-dihydroisoquinoline-2(1H)-carboxamide] | 131 | 24 | 28 | 5
C=CS(=O)(=O)N[C@H]1CC[C@H](c2cc3c(c(N4CCCc5cc(-c6cnn(C)c6)c(C(F)F)cc54)c2)CN(C(=O)NC)CC3)CC1 [Compound 1367, 8-(7-(difluoromethyl)-6-(1-methyl-1H-pyrazol-4-yl)-3,4-dihydroquinolin-1(2H)-yl)-N-methyl-6-((1r,4r)-4-(vinylsulfonamido)cyclohexyl)-3,4-dihydroisoquinoline-2(1H)-carboxamide] | 135 | 33 | 46 | 4
C=CS(=O)(=O)N1CCC(n2nc(N3CCCc4cc(-c5cnn(C)c5)c(C(F)F)cc43)c3c2CCN(C(=O)NC)C3)CC1 [Compound 1369, 3-(7-(difluoromethyl)-6-(1-methyl-1H-pyrazol-4-yl)-3,4-dihydroquinolin-1(2H)-yl)-N-methyl-1-(1-(vinylsulfonyl)piperidin-4-yl)-1,4,6,7-tetrahydro-5H-pyrazolo[4,3-c]pyridine-5-carboxamide] | 4 | 1 | 1 | 0.4
C=CS(=O)(=O)N[C@H]1CC[C@H](n2nc(N3CCCc4cc(-c5cnn(C)c5)c(C(F)F)cc43)c3c2CCN(C(C)=O)C3)CC1 [Compound 1387, N-((1r,4r)-4-(5-acetyl-3-(7-(difluoromethyl)-6-(1-methyl-1H-pyrazol-4-yl)-3,4-dihydroquinolin-1(2H)-yl)-4,5,6,7-tetrahydro-1H-pyrazolo[4,3-c]pyridin-1-yl)cyclohexyl)ethenesulfonamide] | 18 | 3 | 3 | 1
C=CS(=O)(=O)N[C@H]1CC[C@@H](n2nc(N3CCCc4cc(-c5cnn(C)c5)c(C(F)F)cc43)c3c2CCN(C(C)=O)C3)CC1 [Compound 1388, N-((1s,4s)-4-(5-acetyl-3-(7-(difluoromethyl)-6-(1-methyl-1H-pyrazol-4-yl)-3,4-dihydroquinolin-1(2H)-yl)-4,5,6,7-tetrahydro-1H-pyrazolo[4,3-c]pyridin-1-yl)cyclohexyl)ethenesulfonamide] | 15 | 3 | 2 | 1
C=CS(=O)(=O)N1CCC(c2cc3c(c(N4CCCc5cc(-c6cnn(C)c6)c(C(F)F)cc54)c2)CN(C(=O)NC)C3)CC1 [Compound 1391, 4-(7-(difluoromethyl)-6-(1-methyl-1H-pyrazol-4-yl)-3,4-dihydroquinolin-1(2H)-yl)-N-methyl-6-(1-(vinylsulfonyl)piperidin-4-yl)isoindoline-2-carboxamide] | 438 | 117 | 191 | 33

Further lines, with some results ahead:

IC50 [1] [nM] | IC50 [2] [nM] | IC50 [4] [nM] | Compound | IC50 [3] [nM]
4270 | 464 | – | CC(=O)N1Cc2cc([C@H]3CC[C@H](NC(=O)/C=C/CN(C)C)CC3)cc(N3CCCc4cc(-c5cnn(C)c5)c(C(F)F)cc43)c2C1 [Compound 1356] | 53
4940 | 598 | – | CC(=O)N1Cc2cc([C@H]3CC[C@@H](NC(=O)/C=C/CN(C)C)CC3)cc(N3CCCc4cc(-c5cnn(C)c5)c(C(F)F)cc43)c2C1 [Compound 1358] | 39
51 | 3 | 6 | CC(=O)N1Cc2cc([C@H]3CC[C@H](NC(=O)CCl)CC3)cc(N3CCCc4cc(-c5cnn(C)c5)c(C(F)F)cc43)c2C1 [Compound 1362] | 2
208 | 44 | 51 | C=CS(=O)(=O)N1CCC(n2c([C@@H]3CCCC(=O)N3c3ccc(F)c(F)c3)nc3cc(-c4c(C)noc4C)ccc32)CC1 [Compound 1373, (S)-1-(3,4-difluorophenyl)-6-(5-(3,5-dimethylisoxazol-4-yl)-1-(1-(vinylsulfonyl)piperidin-4-yl)-1H-benzo[d]imidazol-2-yl)piperidin-2-one] | 12
11 | 1 | 1 | C=CS(=O)(=O)N[C@H]1CC[C@H](n2nc(N3CCCc4cc(-c5cnn(C)c5)c(C(F)F)cc43)c3c2CCN(C(=O)NC)C3)CC1 [Compound 1374, 3-(7-(difluoromethyl)-6-(1-methyl-1H-pyrazol-4-yl)-3,4-dihydroquinolin-1(2H)-yl)-N-methyl-1-((1r,4r)-4-(vinylsulfonamido)cyclohexyl)-1,4,6,7-tetrahydro-5H-pyrazolo[4,3-c]pyridine-5-carboxamide] | 1
16 | 2 | 2 | C=CS(=O)(=O)N[C@H]1CC[C@@H](n2nc(N3CCCc4cc(-c5cnn(C)c5)c(C(F)F)cc43)c3c2CCN(C(=O)NC)C3)CC1 [Compound 1375, 3-(7-(difluoromethyl)-6-(1-methyl-1H-pyrazol-4-yl)-3,4-dihydroquinolin-1(2H)-yl)-N-methyl-1-((1s,4s)-4-(vinylsulfonamido)cyclohexyl)-1,4,6,7-tetrahydro-5H-pyrazolo[4,3-c]pyridine-5-carboxamide] | 1
4 | 0.3 | 0.5 | CNC(=O)N1CCc2c(c(N3CCCc4cc(-c5cnn(C)c5)c(C(F)F)cc43)nn2C2CCN(C(=O)CCl)CC2)C1 [Compound 1377, 1-(1-(2-chloroacetyl)piperidin-4-yl)-3-(7-(difluoromethyl)-6-(1-methyl-1H-pyrazol-4-yl)-3,4-dihydroquinolin-1(2H)-yl)-N-methyl-1,4,6,7-tetrahydro-5H-pyrazolo[4,3-c]pyridine-5-carboxamide] | 0.2
10 | 3 | 3 | C=CS(=O)(=O)N1CCC(n2nc(N3CCCc4cc(-c5cnn(C)c5)c(C5CC5)cc43)c3c2CCN(C(=O)NC)C3)CC1 [Compound 1378, 3-[7-cyclopropyl-6-(1-methylpyrazol-4-yl)-3,4-dihydro-2H-quinolin-1-yl]-1-(1-(vinylsulfonyl)piperidin-4-yl)-N-methyl-4H,6H,7H-pyrazolo[4,3-c]pyridine-5-carboxamide] | 2
28 | 5 | 8 | C=CS(=O)(=O)N1CCC(n2nc(N3CCCc4cc(-c5cnn(C)c5)c(C#N)cc43)c3c2CCN(C(=O)NC)C3)CC1 [Compound 1379, 3-[7-cyano-6-(1-methylpyrazol-4-yl)-3,4-dihydro-2H-quinolin-1-yl]-1-[1-(vinylsulfonyl)piperidin-4-yl]-N-methyl-4H,6H,7H-pyrazolo[4,3-c]pyridine-5-carboxamide] | 5
496 | 122 | 108 | CNC(=O)N1CCc2c(c(N3CCCc4cc(-c5cnn(C)c5)c(C(F)F)cc43)nn2[C@H]2CC[C@H](N3C(=O)C=CC3=O)CC2)C1 [Compound 1383, 3-(7-(difluoromethyl)-6-(1-methyl-1H-pyrazol-4-yl)-3,4-dihydroquinolin-1(2H)-yl)-1-((1r,4r)-4-(2,5-dioxo-2,5-dihydro-1H-pyrrol-1-yl)cyclohexyl)-N-methyl-1,4,6,7-tetrahydro-5H-pyrazolo[4,3-c]pyridine-5-carboxamide] | 63
